Read-outs that look alike come from different tables or passages of the source.
Legend:
[1] = target: T1, Toxoplasma gondii prolyl-tRNA synthetase (TgPRS) (Toxoplasma gondii, UniProt S8G8I1); assay: co-crystal structure with L-pro; aminoacylation inhibition (malachite green); thermal shift (ΔTm […] °C with L-Pro); type: biochemical
T1 construct: gene TGME49_219850; length 334–830

[2] = system: T2, Toxoplasma gondii WT; assay: microbe, parasite or virus in culture; parameters: species or system human foreskin fibroblasts (HFF); T. gondii RH NLuc tachyzoite growth in HFF monolayer, Nano-Glo luciferase luminescence; settings: Fibroblast, 48 h
T2 construct: RH
Experimental: Compounds were synthesized (HPLC purity > 95%) according to reported procedures. A confluent Human Foreskin Fibroblast (HFF) monolayer was infected with 2,000 tachyzoites of RH parasites expressing the NLuc luciferase (RH NLuc) for 2 h to allow parasite invasion. Each compound was added to the culture medium, and infected cells were incubated at 37° C for 48 h. To measure luminescence, the medium was replaced by 50 μL of PBS, and the luminescence assay was performed using Nano-Glo Luciferase Assay System according to the manufacturer’s instructions (Promega). After 3 min of incubation, the luminescence was measured using the CLARIOstar (BMG Labtech) plate reader. EC50 was determined using a non-linear regression analysis of normalized data assuming a sigmoidal dose-response. […] Statistical analyses were performed using a one-way ANOVA test with GraphPad software.  Fig 4 Activity of five compounds on PRS edited parasites. A-D) EC50 values for L95, L96, L97, and L36 were determined for wild-type (WT) and the engineered PRS mutant strains (T477A and T592S). Data are mean value ±SD from at least 2 independent biological replicates, each with 3 technical replicates. Associated dose-response curves are shown in S2C Fig. Higher EC50 values for the mutants confirm that PRS is the molecular target of all five compounds tested. The P-values were calculated using one-way ANOVA analysis and multiple-comparison post hoc tests. n.s., not significant. Associated dose-response curves are shown in S1 Fig. E) The EC50 (nM) values for the engineered PRS mutant strains (T477A and T592S) are shown in comparison with the TgPRS wild type. F) The catalytic cavity of TgPRS is shown with two inhibitors along with their electron densities–HFG (green) and L95 (red)–bound to the tRNA and L-pro binding sites and the ATP binding site respectively. The ribbon of PRS is in cyan whilst the resistance-conferring mutating residues T477 and T592 to L35 are shown in purple. (n.d.–not detected).

[3] = target: T1, Toxoplasma gondii prolyl-tRNA synthetase (TgPRS); assay: co-crystal structure with L-pro; aminoacylation inhibition (malachite green); thermal shift (ΔTm […] °C with L-Pro); type: biochemical; remark: listed apart in the source
[4] = target: T3, Homo sapiens prolyl-tRNA synthetase (HsPRS) (Homo sapiens, UniProt P07814); assay: co-crystal structure with L-pro; aminoacylation inhibition; thermal shift (ΔTm […] °C with L-pro); type: binding
T3 construct: gene EPRS1; length 1015–1506
T3 sequence (P07814 1015-1506): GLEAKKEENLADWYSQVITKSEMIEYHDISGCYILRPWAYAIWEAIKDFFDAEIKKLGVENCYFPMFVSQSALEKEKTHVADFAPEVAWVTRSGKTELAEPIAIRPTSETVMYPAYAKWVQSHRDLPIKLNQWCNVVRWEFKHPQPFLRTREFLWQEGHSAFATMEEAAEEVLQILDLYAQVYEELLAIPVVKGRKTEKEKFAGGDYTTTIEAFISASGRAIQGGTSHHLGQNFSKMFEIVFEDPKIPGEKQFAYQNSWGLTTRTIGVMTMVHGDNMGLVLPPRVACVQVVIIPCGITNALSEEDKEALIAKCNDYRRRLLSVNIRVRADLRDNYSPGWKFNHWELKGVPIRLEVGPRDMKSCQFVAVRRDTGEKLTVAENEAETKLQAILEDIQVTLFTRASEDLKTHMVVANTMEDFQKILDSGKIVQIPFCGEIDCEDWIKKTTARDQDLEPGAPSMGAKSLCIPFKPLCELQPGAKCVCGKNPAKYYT

[5] = target: T3, Homo sapiens prolyl-tRNA synthetase (HsPRS); assay: as above; type: binding; remark: listed apart in the source
[6] = target: T1, Toxoplasma gondii prolyl-tRNA synthetase (TgPRS); assay: co-crystal structure with L-pro; aminoacylation inhibition (malachite green); thermal shift (ΔTm […] °C with L-Pro); type: biochemical; remark: listed apart in the source
[7] = target: T1, Toxoplasma gondii prolyl-tRNA synthetase (TgPRS); assay: as above; type: biochemical; remark: listed apart in the source
[8] = target: T3, Homo sapiens prolyl-tRNA synthetase (HsPRS); assay: co-crystal structure with L-pro; aminoacylation inhibition; thermal shift (ΔTm […] °C with L-pro); type: binding; remark: listed apart in the source
[9] = target: T1, Toxoplasma gondii prolyl-tRNA synthetase (TgPRS); assay: co-crystal structure with L-pro; aminoacylation inhibition (malachite green); thermal shift (ΔTm […] °C with L-Pro); type: biochemical; remark: listed apart in the source

T1 sequence (S8G8I1 entry or part of it): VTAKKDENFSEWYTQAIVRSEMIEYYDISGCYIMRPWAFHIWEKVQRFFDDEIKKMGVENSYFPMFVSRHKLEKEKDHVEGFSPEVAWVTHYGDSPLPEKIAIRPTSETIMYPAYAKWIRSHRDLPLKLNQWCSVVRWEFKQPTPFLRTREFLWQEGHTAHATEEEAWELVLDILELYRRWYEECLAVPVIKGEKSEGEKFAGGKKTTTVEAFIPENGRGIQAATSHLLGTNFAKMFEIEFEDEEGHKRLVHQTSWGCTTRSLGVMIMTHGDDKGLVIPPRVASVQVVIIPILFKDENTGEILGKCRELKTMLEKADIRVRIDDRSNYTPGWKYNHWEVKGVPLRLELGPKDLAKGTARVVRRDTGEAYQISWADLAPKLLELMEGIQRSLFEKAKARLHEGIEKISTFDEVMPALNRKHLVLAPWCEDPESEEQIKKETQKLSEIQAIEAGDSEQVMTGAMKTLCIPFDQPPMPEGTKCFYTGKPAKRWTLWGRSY

Cc1cc(N2CC[C@](C#N)(C3(C)CC3)C2=O)cc(C(=O)NCc2cc(F)cc(-c3cnn(C)c3)c2)n1 [L36]
IC50 [1]: 2410 nM | EC50 ([2]; read-out: EC50 Treated-L36 (nM)): 5800 ± 350 nM

Cc1cc(N2CCC(CO)(C3CC3)C2=O)cc(C(=O)NCc2cc(F)cc(-c3cnn(C)c3)c2)n1 (centres unmarked) [L97]
IC50 [3]: 50 nM | co-crystal structure with L-pro; aminoacylation inhibition; thermal shift (ΔTm 1) [4]: The complex structure of HsPRS with L95, L96, and L97 was determined | EC50 ([2]; read-out: EC50 Treated-L97 (nM)): 544 ± 130 nM

CCc1nc(N)nc(N)c1-c1ccc(Cl)cc1 [PYR, pyrimethamine]
EC50 ([2]; read-out: EC50 Treated-PYR (nM)): 174 ± 60 nM

COc1cncc(-c2cc(F)cc(CNC(=O)c3cc(N4CC[C@@](C#N)(C5CC5)C4=O)cc(C)n3)c2)c1 [L96]
co-crystal structure with L-pro; aminoacylation inhibition; thermal shift (ΔTm 2) [5]: The complex structure of HsPRS with L95, L96, and L97 was determined | IC50 [6]: 79.7 nM | EC50 ([2]; read-out: EC50 Treated-L96 (nM)): 106 ± 36 nM

Cc1cc(N2CC[C@@](C#N)(C3CC3)C2=O)cc(NC(=O)Cc2ccccc2)n1 [L95]
IC50 [7]: 140 nM | co-crystal structure with L-pro; aminoacylation inhibition; thermal shift (ΔTm 1) [8]: The complex structure of HsPRS with L95, L96, and L97 was determined | EC50 ([2]; read-out: EC50 Treated-L95 (nM)): 277 ± 6 nM

Cc1cc(N2CC[C@@](C#N)(C3(C)CC3)C2=O)cc(C(=O)NCc2cc(F)cc(-c3cnn(C)c3)c2)n1 [L35]
IC50 [9]: 9.2 nM | EC50 ([2]; read-out: EC50 Treated-L35 (nM)): 31 ± 12 nM

Reference: paper PMC9974123, “Targeting prolyl-tRNA synthetase via a series of ATP-mimetics to accelerate drug discovery against toxoplasmosis” (PLOS Pathogens, 2023)
